Like-named read-outs stand apart in the source and are kept apart here. Numbered stars: 1 amine (or outer) side, 2 acyl side, 3 side chain; on linkers, the order of the positions; unused ones are H or OH. Bridge positions count the residues as written; N and C are the ends. Square brackets hold non-standard residues; d marks the D form. Peptide text beside a SMILES is read from it. TATA = O=C(CC[*:1])N1CN(C(=O)CC[*:2])CN(C(=O)CC[*:3])C1
Experiments:
CD16a (V Variant) = CD16a (V Variant) (Homo sapiens, UniProt P08637, F176V); test: FcγRIII (CD16a) SPR (Method A and/or Method B), V variant; type: binding
[1] = target: T1, CD16a/FCgRIIIa (F158 variant) (Homo sapiens, UniProt P08637); test: CD16a/FCgRIIIa HTRF assay (IgG competition on HEK293 cells); type: binding
T1 construct: host or cells: HEK293

human FcγRIII (CD16a) = human FcγRIII (CD16a) (Homo sapiens, UniProt P08637); test: FcγRIII (CD16a) SPR (Method A); type: binding
Description: SPR experiments were performed to determine ka (M^−1s^−1), kd (s^−1), KD (nM) values (where measurable) of various bicyclic peptides to immobilized human FcγRIII proteins.
For analysis of peptide binding, a Biacore 3000 or T200 instrument was used with a CM5 chip (GE Healthcare). Streptavidin was immobilized on the chip using standard amine-coupling chemistry at 25° C. with HBS-N (10 mM HEPES, 0.15 M NaCl, pH 7.4) as the running buffer. Briefly, the carboxymethyl dextran surface was activated with a 7 min injection of a 1:1 ratio of 0.4 M 1-ethyl-3-(3-dimethylaminopropyl) carbodiimide hydrochloride (EDC)/0.1 M N-hydroxy succinimide (NHS) at a flow rate of 10 μl/min. For capture of streptavidin, the protein was diluted to 0.2 mg/ml in 10 mM sodium acetate (pH 4.5) and captured by injecting 120 μl of onto the activated chip surface. Residual activated groups were blocked with a 7 min injection of 1 M ethanolamine (pH 8.5) and biotinylated FcγRIII captured to a level of 400-1,400 RU. Buffer was changed to PBS/0.05% Tween 20 and a dilution series of the peptides was prepared in this buffer with a final DMSO concentration of 0.5%. […] The SPR analysis was run at 25° C. at a flow rate of 50 μl/min with 60 seconds association and dissociation between 60 and 200 seconds. Data were corrected for DMSO excluded volume effects. […]

human CD16a V176 variant = test: IgG competition assay (AlphaScreen), V variant; type: binding; settings: N-terminally biotinylated CD16a V176 10 nM, mouse IgG2a acceptor beads
Fc-tagged human NKp46 = target: T2, Fc-tagged human NKp46 (Homo sapiens, UniProt O76036); test: NKp46 SPR assay (Method 1 and/or Method 2); type: binding; settings: SPR Method 1 and/or Method 2, Table 3B
T2 construct: purchased ACROBiosystems NC1-H5257
In short: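 Method 1: biotinylated Avi-tag NKp46-Fc on streptavidin chip, peptides to 100-5000 nM top in PBS/0.05% Tween 20, 0.5% DMSO; 1:1 kinetic fit with mass transport. Method 2: NKp46-Fc captured by anti-Fc, PBS-P+ 2% DMSO; steady-state or kinetic 1:1 fit. Both 25° C, 50 μl/min, 60 s association.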

[2] = target: T3, human NKp46-his tagged protein (Homo sapiens, UniProt O76036); test: NKp46 Fluorescence Polarization (FP) competition binding assay, tracer BCY15035
T3 construct: His tag; purchased AcroBiosystems

[3] = tested on: CD56- CD3+ (T-cell population) from human PBMCs; test: Flow cytometry binding to PBMCs, CD56-/CD3+ (T-cell) population; type: cell-based; settings: FIG. 2B
Description: (§1) The affinity of NKp46 dimeric bicyclic peptides conjugated to Alexa Fluor® 488 to primary healthy peripheral blood mononuclear cells (PBMCs) was evaluated using a flow cytometry assay.
(§2) On the day of the experiment, medium was prepared by supplementing RPMI-1640 (Gibco™ 11875-093; with L-glutamine) with 10% heat-inactivated fetal bovine serum (FBS; Corning® 35-011-CV), 10 mM HEPES (Gibco™ 15-630-080), and 1% Penicillin Streptomycin (Corning™ 30-002-Cl), herein referred to as working medium. Previously isolated human peripheral blood mononuclear cells (PBMCs), from whole blood, were quick thawed in a water bath and washed once at 500 rpm for 5 minutes in 10 mL of prewarmed working medium. […]
(§3) Preparation of samples for flow cytometry: Zombie Aqua™ Fixable Viability Dye (BioLegend® 423102) was prepared as a 1:1000 dilution in PBS and 100 μL of viability dye was added to each well and incubated in the dark at 4° C. for 30 minutes. […] Cells were resuspended in 200 μL of stain buffer and kept at 4° C. in the dark until read by BD FACSCelesta™ flow cytometer.
(§4) Flow cytometry results were analyzed in FlowJo™ software with a gating strategy to evaluate the lymphocyte population then exclude debris, gate on single and live cells only, and determining the geometric mean of the Alexa Fluor® 488 in the CD3+ and CD3−/CD56+ populations. […]

[4] = tested on: CD56+ (NK cells) from human PBMCs; test: Flow cytometry binding to PBMCs, CD56+ (NK cell) population; type: cell-based; settings: FIG. 2A
Description: as §1, §2, §3, §4

Compound: CC(C)C[C@@H]1NC(=O)[C@@H]2CCCN2C(=O)[C@H](Cc2c[nH]cn2)NC(=O)[C@@H]2CSCCC(=O)N3CN(CN(C3)C(=O)CCSC[C@H](NC(=O)[C@H](C)N)C(=O)N3CCC[C@H]3C(=O)N3CCC[C@H]3C(=O)N[C@@H]([C@@H](C)O)C(=O)N[C@@H](C(C)C)C(=O)N[C@@H](Cc3ccc(O)cc3)C(=O)N2)C(=O)CCSC[C@@H](C(=O)N[C@@H](C)C(N)=O)NC(=O)[C@H](CC(=O)O)NC1=O [BCY11808, A-(SEQ ID NO: 60)-A]
- Kd (CD16a (V Variant); SPR Method A and/or B, Table 6B, read-out: Kd (nM) (V Variant)): 3710 nM
- IC50 ([1]; HTRF, competition with IgG-d2 on HEK293 cells expressing Terbium-labelled CD16a, 2 h at RT, read-out: IC50): 9.44 µM

Compound: C#CCCC(=O)NCCCC[C@H](NC(=O)[C@H](C)NC(=O)[C@@H]1CSCc2nc3nc(n2)CSC[C@H](NC(=O)[C@@H]2CCCN2C(=O)CNC(=O)[C@H](CC(C)C)NC(=O)[C@H](CCC(=O)O)NC(=O)[C@H](CCC(=O)O)NC(=O)[C@H](CC(C)C)NC(=O)CNC(=O)[C@H](C(C)C)NC(=O)[C@@H](NC(=O)[C@H](C)N)CSC3)C(=O)N[C@@H](CO)C(=O)N[C@@H](CC(=O)O)C(=O)N[C@@H](CC(C)C)C(=O)N1)C(N)=O [BCY13886, A-(SEQ ID NO: 62)-A-[K(PYA)]]
- Kd (human FcγRIII (CD16a)): 2.2 µM
- IC50 (human CD16a V176 variant): 3190 nM

Compound: CC(C)C[C@@H]1NC(=O)[C@H](Cc2ccc(O)cc2)NC(=O)[C@H](CC(=O)O)NC(=O)[C@@H]2CCCN2C(=O)[C@H](CC(C)C)NC(=O)[C@H](Cc2ccc(O)cc2)NC(=O)[C@@H](NC(=O)[C@H](C)N)CSCCC(=O)N2CN3CN(C2)C(=O)CCSC[C@H](NC1=O)C(=O)N[C@H](C)C(=O)N[C@@H](CC(=O)O)C(=O)N[C@@H](CCC(=O)O)C(=O)N[C@@H](Cc1ccc(O)cc1)C(=O)N[C@H](C(=O)N[C@@H](C)C(N)=O)CSCCC3=O [BCY15650, A-(SEQ ID NO: 26)-A] (H-ACYLPDYLC[dA]DEYCA-NH2; linker 2-9-14 via TATA; N-terminus assumed)
- Kd (Fc-tagged human NKp46): 0.01 ± 0.003 µM
- Ki [2]: 0.016 µM

Compound: C#CCCC(=O)NCCCC[C@H](NC(=O)[C@H](C)NC(=O)[C@@H]1CSCCC(=O)N2CN3CN(C2)C(=O)CCSC[C@H](NC(=O)[C@H](C)N)C(=O)N2CCC[C@H]2C(=O)N2CCC[C@H]2C(=O)N[C@@H]([C@@H](C)O)C(=O)N[C@@H](C(C)C)C(=O)N[C@@H](Cc2ccc(O)cc2)C(=O)N[C@@H](CSCCC3=O)C(=O)N[C@@H](Cc2c[nH]cn2)C(=O)N2CCC[C@H]2C(=O)N[C@@H](CC(C)C)C(=O)N[C@@H](CC(=O)O)C(=O)N1)C(N)=O [BCY15685, A-(SEQ ID NO: 60)-A-[K(PYA)]]
- IC50 (human CD16a V176 variant): 3480 nM

Compound: CC(C)C[C@@H]1NC(=O)CNC(=O)[C@H](C(C)C)NC(=O)[C@@H](NC(=O)[C@H](C)N)CSCc2nc3nc(n2)CSC[C@H](NC(=O)[C@@H]2CCCN2C(=O)CNC(=O)[C@H](CC(C)C)NC(=O)[C@H](CCC(=O)O)NC(=O)[C@H](CCC(=O)O)NC1=O)C(=O)N[C@@H](CO)C(=O)N[C@@H](CC(=O)O)C(=O)N[C@@H](CC(C)C)C(=O)N[C@H](C(=O)N[C@@H](C)C(N)=O)CSC3 [BCY16493, A-(SEQ ID NO: 62)-A]
- Kd (CD16a (V Variant)): 7330 nM
- IC50 [1]: 4.79 µM

Compound: C[C@H](N)C(=O)N[C@H]1CSCc2nc3nc(n2)CSC[C@H](NC(=O)[C@@H]2CCCN2C(=O)[C@H](CCC(=O)O)NC(=O)[C@H](CO)NC(=O)[C@@H]2C[C@@H](O)CN2C(=O)[C@H](Cc2c[nH]cn2)NC(=O)[C@H](Cc2c[nH]c4ccccc24)NC(=O)[C@H](CCCNC(=N)N)NC1=O)C(=O)NCC(=O)N[C@@H](C)C(=O)N[C@@H](Cc1c[nH]c2ccccc12)C(=O)N[C@H](C(=O)N[C@@H](C)C(N)=O)CSC3 [BCY20383, A-(SEQ ID NO: 228)-A]
- IC50 [1]: 1.11 µM

Compound: BCY15663: AF488 NKp46 homodimer of BCY15452, C-term D-Lys(PYA), linker N-(amine-PEG2)-N-bis(PEG3-azide) (ACYLPDYLCGDEYCAK; not fully specified; D-residues)
- binding to CD56-/CD3+ (T-cell) population of PBMCs (in words) [3]: binding to NK cells only
- binding to CD56+ (NK cell) population of PBMCs (in words) [4]: dose-dependent binding

From US20240108738A1, “BICYCLIC PEPTIDE LIGANDS SPECIFIC FOR NK CELLS” (Bicycle Tx Limited, priority 2021, published 2024)
